Like-named read-outs stand apart in the source and are kept apart here. Marks after values point to notes of the source that are not given here.
Assays:
human COX-1 = target: T1, human COX-1 (Homo sapiens, UniProt P23219); test: Determination of COX-1 inhibitory activity (microsome fraction, chemiluminescence); assay type: biochemical; details: microsome fraction 40 μg, arachidonic acid, 37° C. 25 minutes preincubation; read-out: Repression rate IC50 (μM) COX-1
T1 construct: made in house; host or cells: Sf-21 insect cells (recombinant baculovirus BAC-COX1, pFASTBAC1); microsome fraction
T1 sequence (P23219 24-599): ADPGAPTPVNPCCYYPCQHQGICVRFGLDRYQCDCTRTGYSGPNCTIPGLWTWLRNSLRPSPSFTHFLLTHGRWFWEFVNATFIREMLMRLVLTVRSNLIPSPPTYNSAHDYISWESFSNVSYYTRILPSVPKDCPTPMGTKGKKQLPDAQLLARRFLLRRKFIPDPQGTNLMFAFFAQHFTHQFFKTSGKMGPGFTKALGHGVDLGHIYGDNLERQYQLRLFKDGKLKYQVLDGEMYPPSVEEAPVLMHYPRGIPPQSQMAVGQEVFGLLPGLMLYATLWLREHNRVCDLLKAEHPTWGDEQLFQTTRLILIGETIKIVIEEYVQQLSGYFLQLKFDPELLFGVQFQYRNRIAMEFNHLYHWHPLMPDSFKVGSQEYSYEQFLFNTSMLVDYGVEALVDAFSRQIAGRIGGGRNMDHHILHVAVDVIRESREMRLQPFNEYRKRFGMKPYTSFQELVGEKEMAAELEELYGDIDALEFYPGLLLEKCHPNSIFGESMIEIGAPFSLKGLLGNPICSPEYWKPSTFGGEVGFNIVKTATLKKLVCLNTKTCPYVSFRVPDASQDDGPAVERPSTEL
Description: A 1.8 kb DNA fragment containing human COX-1 cDNA (FASEB J., vol. 5 (9), p. 2304-2312 (1991)) prepared by the PCR method was inserted into plasmid pFASTBAC1 (CIBCOBRL) to obtain a plasmid pFBCOX1.
Using the plasmid pFBCOX1 and BAC-TO-BAC Baculovirus Expression System (GIBCOBRL), a virus stock BAC-COX1 of the recombinant baculovirus was prepared.
Sf-21 cells were inoculated in 125 mL of Sf-900 II SFM medium (GIBCOBRL) at a concentration of 1×10^6 cells/mL, and the medium was incubated at 27° C. for 24 hours. 0.75 mL of the virus stock BAC-COX1 of the recombinant baculovirus was added thereto, and the mixture was incubated further for 72 hours. The cells were separated from the medium by centrifugation (3000 rpm, 10 min), and washed with PBS twice. The cells were suspended in 10 mL of a Lysis buffer (0.1M Tris-HCl (pH 7.4), 5 mM EDTA), and were treated with a homogenizer (POLYTRON) three times at 20000 rpm for 20 seconds so that the cells were crushed. The supernatant obtained after centrifugation (2000 rpm, 10 minutes) was further centrifuged (40000 rpm, 45 minutes) to give a precipitate, which was resuspended in a Lysis buffer (0.1M Tris-HCl (pH 7.4), 5 mM EDTA), and the suspension was stored at −80° C.
(§1) Determination of COX-1 and COX-2 Inhibitory Activities
(§2) To a mixture of 20 μL of a reaction buffer previously concentrated 10 times (1M Tris-HCl (pH8.0), 50 mM EDTA, 1.0% Tween 20, 50 mM luminol, 100 μM hematin), 20 μL of the microsome fractions (COX-1: 40 μg, COX-2: 20 μg), and 55 μL of distilled water, a sample compound dissolved in DMF (5 μL) was added, and the mixture was left at 37° C. for 25 minutes. The reaction was started by the addition of 20 μM arachidonic acid (100 μL), and chemiluminescence amount during the 10-second period after the addition of arachidonic acid was determined by the use of Lumistar (BMG Lab technologies, GmbH). The inhibition rate was calculated, regarding that the enzyme activity when DMF ([…]) was added was 100%, and the enzyme activity when 4 mM flurbiprofen (5 μL) was added was 0%.

gastric mucosa = test: Disorder of gastric mucosa; assay type: in vivo, SD rats; details: stomach, 1000 mg/kg orally, fasted rats, 6 hours after dosing
Description: Disorder of Gastric Mucosa
Male SD origin male-rats (7 weeks old, CLEA Japan) were used. After 24 hours from the termination of food supply, samples were orally administered (5 mL/kg, b.w.). After 5.5 hours, Evan's Blue (0.5% Evan's Blue/saline) was injected intravenously (1 mL/rat) under no anesthesia. After 30 minutes from the shot, the stomach (with esophagus and duodenum of 1.5 to 2 cm length) was removed by celiotomy, and subsequently, the esophagus terminal was closed with a clip, and a 8 mL of 1% formalin solution was injected into the stomach through the duodenum, which was also closed with a clip after the injection. The stomach was left contacting with the 1% formalin solution for more than 10 minutes, and subsequently cut open from duodenum along the greater curvature of stomach. The stomach was washed and spread on a filter paper, and the length of each of the spots dyed by Evan's Blue (hemorrhagic portion: mucosal ablation to ulcer) was measured under a stereomicroscope, and the total length (mm) was calculated by a counter and recorded.

[1] = test system: mucosa of small intestine; test: Disorder of mucosa of small intestine; assay type: in vivo, SD rats; details: 300 mg/kg orally, freely fed rats, 6 hours after dosing
Description: Disorder of Mucosa of Small Intestine Male SD origin male-rats (7 weeks old, CLEA Japan) were used. To the rats freely fed, samples were administered orally (5 mL/kg, b.w.). After 5.5 hours from the administration, Evan's Blue (0.5% Evan's Blue/saline) was injected (1 mL/rat) intravenously under no anesthesia. After 30 minutes from the shot, the intestine was removed by celiotomy and the area thereof facing mesentery was cut open. After removal of intestinal content, the spots in the intestine dyed by Evan's Blue were measured under a stereomicroscope, and the total length (mm) of the spots was determined by a counter and recorded.

human COX-2 = target: T2, human COX-2 (Homo sapiens, UniProt P35354); test: Determination of COX-2 inhibitory activity (microsome fraction, chemiluminescence); assay type: biochemical; details: microsome fraction 20 μg, arachidonic acid, 37° C. 25 minutes preincubation; read-out: Repression rate IC50 (μM) COX-2
T2 construct: made in house; host or cells: Sf-21 insect cells (recombinant baculovirus BAC-COX2, pFASTBAC1); microsome fraction
T2 sequence (P35354 18-604): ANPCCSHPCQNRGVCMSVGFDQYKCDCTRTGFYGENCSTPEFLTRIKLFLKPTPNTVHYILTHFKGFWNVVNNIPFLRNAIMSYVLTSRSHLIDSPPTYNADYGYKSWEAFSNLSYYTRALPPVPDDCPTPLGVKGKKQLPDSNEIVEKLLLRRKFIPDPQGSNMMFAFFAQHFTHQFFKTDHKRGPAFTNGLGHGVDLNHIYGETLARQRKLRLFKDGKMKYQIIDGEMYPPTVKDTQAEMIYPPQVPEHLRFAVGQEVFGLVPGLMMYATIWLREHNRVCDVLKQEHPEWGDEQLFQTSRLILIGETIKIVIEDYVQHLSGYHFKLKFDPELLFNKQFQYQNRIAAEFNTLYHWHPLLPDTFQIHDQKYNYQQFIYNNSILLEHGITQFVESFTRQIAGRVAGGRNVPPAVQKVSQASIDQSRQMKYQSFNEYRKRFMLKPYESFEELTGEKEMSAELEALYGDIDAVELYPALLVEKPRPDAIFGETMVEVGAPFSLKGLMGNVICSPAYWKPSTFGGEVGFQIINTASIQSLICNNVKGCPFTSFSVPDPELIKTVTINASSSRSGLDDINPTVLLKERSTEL
Description: A 1.8 kb DNA fragment containing human COX-2 cDNA (Proc. Natl. Acad. Sci. U.S.A., vol. 89 (16), p. 7384-7388 (1992)) prepared by the PCR method was inserted into plasmid pFASTBAC1 (CIBCOBRAL) to obtain a plasmid pFBCOX2.
Using the plasmid pFBCOX2 and BAC-TO-BAC Baculovirus Expression System (GIBCOBRAL), a virus stock BAC-COX2 of the recombinant baculovirus was prepared.
Sf-21 cells were inoculated in 125 mL of LSf-900 II SFM medium (GIBCOBRAL) at a concentration of 1×10^6 cells/mL, and the medium was incubated at 27° C. for 24 hours. 0.75 mL of the virus stock BAC-COX2 of the recombinant baculovirus was added thereto, and was incubated further for 72 hours. The cells were separated from the medium by centrifugation (3000 rpm, 10 min), and washed with PBS twice. The cells were suspended in 10 mL of a Lysis buffer (0.1M Tris-HCl (pH 7.4), 5 mM EDTA), and were treated with a homogenizer (POLYTRON), three times at 20000 rpm for 20 seconds so that the cells were crushed. The supernatant thus obtained after centrifugation (2000 rpm, 10 minutes) was further centrifuged (40000 rpm, 45 minutes) to obtain a precipitate, which was resuspended in a Lysis buffer (0.1M Tris-HCl (pH 7.4), 5 mM EDTA), and the suspension was stored at −80° C.
as §1, §2

yeast-induced pyrexia = test: Antipyretic activity in yeast-induced pyrexia; assay type: in vivo, SD rats; details: 10 mg/kg orally; maximum difference in body temperature vs control over 6 hours
Description: Antipyretic Activity in Yeast-Induced Pyrexia Antipyretic activity was determined using male SD origin male-rats (7 weeks old, CLEA Japan, 1 group: n=6), according to the method of winter et. al. (J. Pharmacol. Exp. Ther., vol. 138, p. 405, 1963). Before 16 hours from measurement of body temperature, a suspension of 15% yeast in saline was injected subcutaneously (10 mL/kg, b.w.) into the rats to induce fever, and simultaneously supply of food was terminated while water was made available all the time. Each of the rats was raised separately. After 16 hours from the yeast shot, a thermistor terminal was inserted at an about 4 cm depth into rectum every hour, and the body temperatures after 30 seconds were recorded. After 18 hours, rats developing fevers consistently were selected, and a sample was orally administered to the rats (5 mL/kg, b.w.), while to the control, only the solvent was administered. After the administration, body temperatures were measured every hour for a period of 6 hours, and the maximum difference in body temperature between the rats in the sample group and in the control group were determined as Δ (° C.).

adjuvant arthritis = test: Anti-adjuvant-arthritic activity; assay type: in vivo, SD rats; details: 10 mg/kg orally once a day for 14 days; volume of left hind limb (not injected); day of reading not given
Description: Anti-Adjuvant-Arthritic Activity
Male SD origin male-rats (6 weeks old, CLEA Japan, 1 group: n=7) were used. The adjuvant arthritis method was conducted according to the method of Newbould B. B. et. al., (Brit. J. Pharmacol. Chemother., vol. 21, p. 127, 1963). Complete Freund's adjuvant (a suspension of killed tubercule bacillus in liquid paraffin at a concentration of 0.5%, 0.05 mL) was injected into the right hind limb footpad intracutaneouly to induce multiple arthritis. Samples were administered orally (10 mg/kg, b.w.), once a day for 14 days from the day before the injection day 0 to day 13. Volume of the left hind limb (not injected) was determined by the foot-volume measurement apparatus manufactured by Ugo Basile, on the day just before the adjuvant shot (Day 0), Day 10 and Day 14, and repression rate (%) was calculated comparing the values between the sample group and the control group.

[2] = test system: carrageenin edema of right hind limb plantar; test: Anti-inflammatory activity, carrageenin edema method; assay type: in vivo, SD-rats; details: po, 10 mg/kg orally
Description: Anti-Inflammatory Activity
Male SD-rats (6 weeks old, CLEA Japan) were used (1 group, n=6). The Carrageenin edema method was performed according to the method of Winter et. al., (Proc. Soc. Exp. Biol. Med., vol. 111, p. 544-547, 1962). After the volume of right hind limb plantar of the rat was determined, a sample was orally administered (1.0 mL, b.w.), and immediately water was orally administered in an amount of 5 mL/rat. Meanwhile, only the solvent of the sample was orally administered to rats in control. After 1 hour, a solution of 1% carrageenin in saline (0.05 mL) was injected into the right hind limb plantar subcutaneously to induce edema. After 2 and 3 hours later from the injection, volumes of the right hind limb plantar were determined. The repression rate (%) of the sample was calculated by comparing the difference of the volumes of the plantar before the carrageenin shot and 2 and 3 hours after the shot between the sample groups and the control groups.

[3] = test system: acetic acid induced rising and stretching; test: Analgesic activity, acetic acid rising method; assay type: in vivo, ICR-mice; details: po, 20 min; 10 mg/kg orally, 30 minutes before 0.6% acetic acid i.p.; number of rising and stretching in 20 minutes; read-out: Repression rate (%) Dosage 10 mg/kg
Description: Analgesic Activity Acetic Acid Rising Method Male ICR-mice (5 weeks old, CLEA Japan) were used (1 group, n=10), and a sample was orally administered (0.2 mL/10 g, b.w.). After 30 minutes, 0.6% acetic acid solution was injected to mice intraperitoneally (0.1 mL/10 g, b.w.), and the mice were immediately transferred into an observation cage made of a transparent acrylic resin. The number of rising and stretching during the following period of 20 minutes was counted. The repression rate (%) was calculated by comparing the average numbers between the sample groups and the control groups.

Row | SMILES | IC50 (human COX-1) [µM] | Total length of dyed spots (mm) (gastric mucosa) | Total length of dyed spots (mm) [1] | IC50 (human COX-2) [µM] | Δ (° C.) Dosage 10 mg/kg (yeast-induced pyrexia) | Repression rate (%) Dosage 10 mg/kg (adjuvant arthritis) | melting point [°C] | inhibition in vivo at 10 mg/kg ([2]; 2 hr after carrageenin injection, read-out: Repression rate (%) Dosage 10 mg/kg 2 hr later) [%] | inhibition in vivo at 10 mg/kg ([2]; 3 hr after carrageenin injection, read-out: Repression rate (%) Dosage 10 mg/kg 3 hr later) [%] | inhibition in vivo at 10 mg/kg [3] [%]
1 | Cc1nn(-c2ccccn2)c2[nH]c3cc(F)c(F)cc3c(=O)c12.O [Example 2-92, 6,7-Difluoro-3-methyl-1-(2-pyridinyl)-1,9-dihydro-4H-pyrazolo[3,4-b]quinolin-4-one monohydrate] | 0.677 | 0 (1000 mg/kg) mm | 0 (300 mg/kg) mm | 0.465 |  |  |  |  |  | 
2 | Cc1nn(-c2ccccn2)c2[nH]c3cc(F)c(F)cc3c(=O)c12 [Example 2-91, 6,7-Difluoro-3-methyl-1-(2-pyridinyl)-1,9-dihydro-4H-pyrazolo[3,4-b]quinolin-4-one] |  | 0 (1000 mg/kg) mm |  |  | 1.5** ° C. | 76** % | 274 to 277 | 51 | 42 | 65

— patent US6949648B2, “Condensed pyrazole derivatives, process for producing the same and use thereof” (Takeda Pharmaceutical Company Limited, priority 2000, dated 2005)
